The results in this text go back to patent US7524853B2 (Solvay Pharmaceuticals B.V., priority 2003, dated 2009).

Common to all, as to assay type: cell-based
In assay [1] the target is T1, 17β-hydroxysteroid dehydrogenase type 3 (17β-HSD type 3) (Homo sapiens, UniProt P37058).
T1 construct: expressed in transfected cells; host or cells: MCF-7
T1 sequence (P37058 1-310): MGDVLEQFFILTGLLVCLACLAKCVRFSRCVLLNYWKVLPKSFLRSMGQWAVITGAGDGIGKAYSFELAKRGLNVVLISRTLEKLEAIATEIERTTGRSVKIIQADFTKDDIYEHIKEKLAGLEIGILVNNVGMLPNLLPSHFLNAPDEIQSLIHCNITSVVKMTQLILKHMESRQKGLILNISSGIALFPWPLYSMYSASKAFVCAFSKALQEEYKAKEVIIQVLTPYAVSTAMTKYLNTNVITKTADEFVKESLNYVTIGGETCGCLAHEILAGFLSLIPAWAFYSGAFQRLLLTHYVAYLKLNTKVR
As to the kind of experiment: Inhibition of 17β-HSD type 3 in MCF-7 cells stably expressing the isoenzyme (tritium labeled androstenedione conversion, HPLC). The conditions noted are these: MCF-7 cells expressing 17β-HSD type 3, 2 nM tritium labeled androstenedione; for inhibition at 1 µM / inhibition at 10 µM: MCF7; for inhibition at 1 µM: read-out: % Inhibition HSD3 1 μM; for inhibition at 10 µM: read-out: % Inhibition HSD3 10 μM. An outline of the steps:
(§1)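 MCF-7 lines stably expressing each 17β-HSD isoenzyme incubated in growth medium with compound at two concentrations and 2 nM tritiated substrate (estrone, type 1; estradiol, type 2; androstenedione, type 3). Reaction stopped with TCA; conversion measured by HPLC with flow scintillation, inhibition relative to compound-free control.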

In assay [2] the target is T2, 17β-hydroxysteroid dehydrogenase type 2 (17β-HSD type 2) (Homo sapiens, UniProt P37059).
T2 construct: expressed in transfected cells; host or cells: MCF-7
T2 sequence (P37059 1-387): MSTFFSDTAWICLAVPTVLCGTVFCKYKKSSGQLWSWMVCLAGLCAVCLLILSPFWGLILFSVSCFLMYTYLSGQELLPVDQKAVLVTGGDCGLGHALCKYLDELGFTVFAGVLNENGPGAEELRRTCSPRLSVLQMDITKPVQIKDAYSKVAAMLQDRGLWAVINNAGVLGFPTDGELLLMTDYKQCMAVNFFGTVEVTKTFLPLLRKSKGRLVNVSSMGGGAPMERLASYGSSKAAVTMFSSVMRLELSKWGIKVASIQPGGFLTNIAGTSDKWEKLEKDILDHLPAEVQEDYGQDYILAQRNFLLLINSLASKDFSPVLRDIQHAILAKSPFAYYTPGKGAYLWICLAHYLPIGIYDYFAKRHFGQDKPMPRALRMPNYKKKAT
Nature of the assay: Inhibition of 17β-HSD type 2 in MCF-7 cells stably expressing the isoenzyme (tritium labeled estradiol conversion, HPLC). The conditions noted are these: MCF-7 cells expressing 17β-HSD type 2, 2 nM tritium labeled estradiol; for inhibition at 1 µM / inhibition at 10 µM: MCF7; for inhibition at 1 µM: read-out: % Inhibition HSD2 1 μM; for inhibition at 10 µM: read-out: % Inhibition HSD2 10 μM. An outline of the steps:
as §1

The target of assay [3] is T3, 17β-hydroxysteroid dehydrogenase type 1 (17β-HSD type 1) (Homo sapiens, UniProt P14061).
T3 construct: expressed in transfected cells; host or cells: MCF-7
T3 sequence (P14061 1-328): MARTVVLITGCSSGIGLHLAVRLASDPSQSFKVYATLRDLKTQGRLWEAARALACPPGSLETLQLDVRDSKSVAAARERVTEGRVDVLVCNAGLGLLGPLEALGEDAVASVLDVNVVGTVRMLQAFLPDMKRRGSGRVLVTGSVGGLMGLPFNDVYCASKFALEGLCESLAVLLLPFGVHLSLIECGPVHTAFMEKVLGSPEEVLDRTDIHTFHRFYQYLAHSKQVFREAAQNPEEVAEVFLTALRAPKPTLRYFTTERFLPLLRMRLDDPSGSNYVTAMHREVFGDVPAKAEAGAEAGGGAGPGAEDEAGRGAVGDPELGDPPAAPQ
As to the kind of experiment: Inhibition of 17β-HSD type 1 in MCF-7 cells stably expressing the isoenzyme (tritium labeled estrone conversion, HPLC). The conditions noted are these: MCF-7 cells expressing 17β-HSD type 1, 2 nM tritium labeled estrone; for inhibition at 1 µM / inhibition at 10 µM: MCF7; for inhibition at 1 µM: read-out: % Inhibition HSD1 1 μM; for inhibition at 10 µM: read-out: % Inhibition HSD1 10 μM. An outline of the steps: as §1

A word on the inhibition: it is the relative decrease from the control value, in per cent. For the compound `COCc1nc2sc3c(c2c(=O)n1-c1ccccc1)CCCC3` [No. 36, 2-Methoxymethyl-3-phenyl-5,6,7,8-tetrahydro-3H-benzo[4,5]thieno[2,3-d]pyrimidin-4-one], the inhibition at 1 µM was -0.9% in assay [1] (1 μM test compound), -6.8% in assay [2] (1 μM test compound) and 20.7% in assay [3] (1 μM test compound). Also, the figures for the inhibition at 10 µM in assay [1] (10 μM test compound), in assay [2] (10 μM test compound) and in assay [3] (10 μM test compound) were 7.6%, 28.7% and 22.4%, respectively.

Turning to `O=c1c2c(nc(-c3cccs3)n1Cc1ccccc1)sc1c(O)cccc12` [No. 67, 3-Benzyl-8-hydroxy-2-thiophen-2-yl-3H-benzo[4,5]thieno[2,3-d]pyrimidine-4-one], the inhibition at 1 µM in assay [1] (1 μM test compound) came to 19.1%; in assay [2] (1 μM test compound) it was 55.2%; in assay [3] (1 μM test compound), 14.7%. The inhibition at 10 µM was 33.4% in assay [1] (10 μM test compound), 80.3% in assay [2] (10 μM test compound) and 29.6% in assay [3] (10 μM test compound).

With `O=c1c2c(nc(-c3ccccc3)n1Cc1ccccc1)sc1c(O)c(Br)ccc12` [No. 92, 3-Benzyl-7-bromo-8-hydroxy-2-phenyl-3H-benzo[4,5]thieno[2,3-d]pyrimidin-4-one], the inhibition at 1 µM in assay [1] (1 μM test compound) worked out at 4.7%; in assay [2] (1 μM test compound), 42.7%; in assay [3] (1 μM test compound), 22%. The inhibition at 10 µM in assay [1] (10 μM test compound) came to 24.3%; in assay [2] (10 μM test compound), 60.9%; in assay [3] (10 μM test compound) it was 23.3%.

Take `O=C1c2sc3nc(-c4ccccc4)n(Cc4ccccc4)c(=O)c3c2CCC1Br` (stereo not drawn) [No. 58, 3-Benzyl-7-bromo-2-phenyl-6,7-dihydro-3H,5H-benzo[4,5]thieno[2,3-d]pyrimidine-4,8-dione]: the inhibition at 1 µM in assay [1] (1 μM test compound) stood at 16%; in assay [2] (1 μM test compound), 22.5%; in assay [3] (1 μM test compound) it was 25.5%. In addition, the inhibition at 10 µM in assay [1] (10 μM test compound) is 39.4%; in assay [2] (10 μM test compound), 33.9%; in assay [3] (10 μM test compound), 54.9%.

On to `CCCCn1c(CCC2CCCC2)nc2sc3c(O)cccc3c2c1=O` [No. 634], for which the “% Inhibition HSD3 1 μM” value in assay [1] (1 μM test compound) was determined as 13.3%. Moreover, the “% Inhibition HSD3 10 μM” value in assay [1] (10 μM test compound) worked out at 56.4%. Also, the “% Inhibition HSD2 1 μM” value in assay [2] (1 μM test compound) came to 16.8%. The “% Inhibition HSD2 10 μM” value in assay [2] (10 μM test compound) came out at 20.1%. Besides, the “% Inhibition HSD1 1 μM” value in assay [3] (1 μM test compound) came out at 16.8%. Also, the “% Inhibition HSD1 10 μM” value in assay [3] (10 μM test compound) amounted to 17.9%.

Take `COc1c(O)cc(-c2nc3sc4c(c3c(=O)n2-c2ccccc2)CCCC4)cc1O` [No. 42, 3-Phenyl-2-(3,5-dihydroxy-4-methoxyphenyl)-5,6,7,8-tetrahydro-3H-benzo[4,5]thieno[2,3-d]pyrimidin-4-one]: the figures for the inhibition at 1 µM in assay [1] (1 μM test compound), in assay [2] (1 μM test compound) and in assay [3] (1 μM test compound) were 3.2%, -1.9% and 26.8%, respectively. In addition, the values for the inhibition at 10 µM in assay [1] (10 μM test compound), in assay [2] (10 μM test compound) and in assay [3] (10 μM test compound) were 4%, -0.5% and 56%, respectively.

On to `COc1cc(-c2nc3sc4c(c3c(=O)n2Cc2ccccc2)CCC(C=O)=C4Cl)cc(OC)c1OC` [No. 3, 3-Benzyl-8-chloro-4-oxo-2-(3,4,5-trimethoxyphenyl)-3,4,5,6-tetrahydro-benzo[4,5]thieno[2,3-d]pyrimidine-7-carbaldehyde], for which the inhibition at 1 µM in assay [1] (1 μM test compound) is -19.4%; in assay [2] (1 μM test compound) it was -3.2%; in assay [3] (1 μM test compound), 3.2%. Further, the inhibition at 10 µM in assay [1] (10 μM test compound) amounted to 29.1%; in assay [2] (10 μM test compound), 7.8%; in assay [3] (10 μM test compound) it was 38.4%.

On to `CC(=O)OCc1nc2sc3c(c2c(=O)n1Cc1ccccc1)CCCC3` [No. 29, Acetic acid 3-benzyl-4-oxo-3,4,5,6,7,8-hexahydro-benzo[4,5]thieno[2,3-d]pyrimidin-2-ylmethyl ester], for which the results for the inhibition at 1 µM in assay [1] (1 μM test compound), in assay [2] (1 μM test compound) and in assay [3] (1 μM test compound) were 16.9%, 8.5% and 9%, respectively. Also, the inhibition at 10 µM in assay [1] (10 μM test compound) amounted to 28.4%; in assay [2] (10 μM test compound), 21.1%; in assay [3] (10 μM test compound), 15.5%.

As to `COc1cc(-c2nc3sc4c(c3c(=O)n2Cc2ccccc2)C(Br)CCC4=O)cc(OC)c1OC` (stereo not drawn) [No. 137, 3-Benzyl-5-bromo-2-(3,4,5-trimethoxyphenyl)-6,7-dihydro-3H,5H-benzo[4,5]thieno[2,3-d]pyrimidine-4,8-dione], the inhibition at 1 µM in assay [1] (1 μM test compound) is 19.3%; in assay [2] (1 μM test compound), 28.1%; in assay [3] (1 μM test compound), 35%. Moreover, the inhibition at 10 µM in assay [1] (10 μM test compound) was 49.8%; in assay [2] (10 μM test compound) it was 32.9%; in assay [3] (10 μM test compound), 76%.

Turning to `O=c1c2c3c(sc2nc(-c2cc(O)c(O)c(O)c2)n1-c1ccccc1)CCCC3` [No. 43, 3-Phenyl-2-(3,4,5-trihydroxyphenyl)-5,6,7,8-tetrahydro-3H-benzo[4,5]thieno[2,3-d]pyrimidin-4-one], the inhibition at 1 µM in assay [1] (1 μM test compound) is -2.5%; in assay [2] (1 μM test compound) it was 18%; in assay [3] (1 μM test compound), 12%. Moreover, the inhibition at 10 µM in assay [1] (10 μM test compound) was -0.9%; in assay [2] (10 μM test compound), 15%; in assay [3] (10 μM test compound), 23.8%.

As to `COc1cc(-c2nc3sc4c(c3c(=O)n2Cc2ccco2)CCCC4)cc(OC)c1OC` [No. 119, 3-Furan-2-ylmethyl-2-(3,4,5-trimethoxylphenyl)-5,6,7,8-tetrahydro-3H-benzo[4,5]thieno[2,3-d]pyrimidin-4-one], the inhibition at 1 µM in assay [1] (1 μM test compound) was 2.3%; in assay [2] (1 μM test compound) it was 25.1%; in assay [3] (1 μM test compound), 9.6%. Besides, the inhibition at 10 µM in assay [1] (10 μM test compound) worked out at 19.1%; in assay [2] (10 μM test compound), 30.1%; in assay [3] (10 μM test compound), 27.9%.

On to `CCCCn1c(-c2cc(OC)c(OC)c(OC)c2)nc2sc3c(O)cccc3c2c1=O` [No. 89, 3-Butyl-8-hydroxy-2-(3,4,5-trimethoxyphenyl)-3H-benzo[4,5]thieno[2,3-d]pyrimidin-4-one], for which the values for the inhibition at 1 µM in assay [1] (1 μM test compound), in assay [2] (1 μM test compound) and in assay [3] (1 μM test compound) were 30.9%, 31.2% and 37.7%, respectively. The values for the inhibition at 10 µM in assay [1] (10 μM test compound), in assay [2] (10 μM test compound) and in assay [3] (10 μM test compound) were 80.1%, 40.1% and 84.7%, respectively.

In the case of `COc1cc(-c2nc3sc4c(c3c(=O)n2-c2ccccc2)CCCC4=O)cc(OC)c1OC` [No. 11, 3-Phenyl-2-(3,4,5-trimethoxyphenyl)-6,7-dihydro-3H,5H-benzo[4,5]thieno[2,3-d]pyrimidine-4,8-dione], the inhibition at 1 µM in assay [1] (1 μM test compound) was -5.6%; in assay [2] (1 μM test compound) it was -5.3%; in assay [3] (1 μM test compound), 14.2%. Further, the values for the inhibition at 10 µM in assay [1] (10 μM test compound), in assay [2] (10 μM test compound) and in assay [3] (10 μM test compound) were 12.8%, 12.3% and 27.7%, respectively.

In the case of `CCCc1nc2sc3c(O)c(Br)ccc3c2c(=O)n1Cc1ccc(Br)o1` [No. 107, 7-Bromo-3-(5-bromofuran-2-ylmethyl)-8-hydroxy-2-propyl-3H-benzo[4,5]thieno[2,3-d]pyrimidin-4-one], the inhibition at 1 µM was 3.2% in assay [1] (1 μM test compound), 25.4% in assay [2] (1 μM test compound) and -14.2% in assay [3] (1 μM test compound). Also, the inhibition at 10 µM in assay [1] (10 μM test compound) is 44.3%; in assay [2] (10 μM test compound), 45.7%; in assay [3] (10 μM test compound), 24.7%.
